The results in this text go back to PubChem BioAssay AID488890 (Southern Research Specialized Biocontainment Screening …, 2010).

This assay has as its system Mycobacterium tuberculosis non-replicating, growth inhibition. Briefly: growth inhibition of non-replicating M. tuberculosis (AID 488890).

Results filed as inconclusive are left out. Active and inactive are the calls of the source. No rule for the calls is given here.

The term IC50 denotes the concentration that inhibits the measured activity by half. For the compound `O=C(NCCCN1CCOCC1)c1c(O)c2cc(Br)cc(Br)c2[nH]c1=O`, the IC50 was 0.8 µM. The result for `CC(C)N1CCc2c(sc(NC(=O)CCS(=O)(=O)c3ccccc3)c2C#N)C1` reads 39.6 µM (inactive).

`CCCCn1c(O)c(/C=C2/C=CC=N2)c(=O)[nH]c1=O`: the IC50 is 1.17 µM.

For `O=C(Nc1ccccn1)c1ccc([N+](=O)[O-])o1`, the half-maximal inhibitory concentration (IC50) is 0.77 µM. Then `Cn1c(/C=C/c2ccc([N+](=O)[O-])o2)nc2ccccc2c1=O`, with < 0.1 µM; and `Oc1ccc(F)c2cccnc12`, with 1.61 µM. Then `O=C(c1ccccc1)C1CN(Cc2ccccc2)CCC1(O)c1ccccc1` (stereo not given), with 3.82 µM; and `CCn1nnc(NC(=O)c2ccc(-c3ccc(Cl)cc3)o2)n1`, with 3.07 µM. The result for `CCN1C(=O)CC(N2CCC(c3nc4ccccc4[nH]3)CC2)C1=O` (stereo not given) reads 34.2 µM (inactive). Turning to `NC1CCN(c2c(F)cc3c(=O)c(C(=O)O)cn(C4CC4)c3c2Cl)C1` (stereo not given), the IC50 is 0.15 µM. On to `Cc1ccc(NC(=O)COC(=O)C(NS(=O)(=O)c2ccc(Cl)cc2)C(C)O)cc1C` (stereo not given), for which the IC50 is 22.1 µM (inactive). The result for `O=C(N/N=C\c1ccco1)c1cncc(Br)c1` reads 38.1 µM (inactive). Then `CNC(C)C#Cc1ccc2oc3cc(C)c(C)cc3c(=O)c2c1` (stereo not given), with 7.55 µM. Then `Cc1nnsc1C(=O)N/N=C/c1ccc2ccccc2c1O`, with 0.48 µM.

Consider `Cc1nc(C(=O)Nc2ccccc2)sc1C(=O)Nc1ccccc1`, for which the IC50 is 9.77 µM. The result for `Clc1ccc(N=c2ssnc2Cl)nc1` reads 3.45 µM. The result for `CCOC(=O)c1csc(COc2ccc(OC)cc2)n1` reads 7.75 µM; that for `CN1C(c2ccccc2)CC(=NO)CC1c1ccccc1` (stereo not given), 11.3 µM (inactive). Then `CCOC(=O)COn1c2c(c3c4no[n+]([O-])c4ccc31)CCCC2`, with 1.13 µM; and `CC1=C/C(=N\OS(=O)(=O)c2ccccc2)C(C)=CC1=O`, with 0.66 µM. As to `CCC(=O)N/N=C/c1ccc(-c2ccc(Cl)cc2)o1`, the IC50 is 8.36 µM. For the compound `COC(=O)[C@@H](NC(=O)c1cc(COc2cncc(Cl)c2)on1)c1ccccc1`, the concentration for half-maximal inhibition (IC50) was 5.58 µM. Then `Clc1ccc(SCCCCn2ccnc2)cc1`, with 4.89 µM. Consider `CCOc1ccc(Nc2ccc([N+](=O)[O-])c3nonc23)cc1`, for which the IC50 was 1.72 µM. The result for `CCCOC(=O)c1ccc(-c2ccc(C=O)o2)cc1` reads 1.27 µM; that for `CCCCn1c(=O)c(C(=O)Nc2ncccc2C)c(O)c2ccccc21`, 3.81 µM. In the case of `COC(=O)COc1ccc2c(-c3ccc(OC)cc3)cc(=O)oc2c1`, the IC50 was 0.78 µM. Turning to `CSCCC(=O)N1CCCC(CNC(=O)c2ccc(-c3ccccc3)cc2)C1` (stereo not given), the IC50 was 17.9 µM (inactive). Then `COc1ccc(C(=O)NNC2=C(C(=O)C(F)(F)F)CCC2)cc1`, with 1.9 µM. The result for `O=C(COC(=O)CC1CCCC1)Nc1ccc(OC(F)F)cc1` reads 10.8 µM (inactive); that for `CC1=NN(C(=O)c2ccccc2Cl)C(O)(c2ccccc2)C1` (stereo not given), 1.43 µM. Regarding `O=S(=O)(c1ccc(OCC2CO2)cc1)c1ccc(OCC2CO2)cc1` (stereo not given), the IC50 is 19.7 µM (inactive). The result for `CN1C/C(=C/c2cccnc2)C(=O)/C(=C/c2cccnc2)C1` reads 23.5 µM (inactive); that for `O=c1oc(-c2cccs2)nc2c1cnn2-c1ccccc1`, 0.43 µM. Then `Cc1cccc(CC(=O)NCC2CCCCC2)c1`, with 16.7 µM (inactive). The result for `COc1cccc(C(=O)Nc2nnc(-c3ccc(F)cc3)o2)c1` reads 8.17 µM; that for `CCN(CC)c1ccc(-c2sc(Nc3ccccc3)n[n+]2-c2ccc(F)cc2)cc1`, 9.04 µM; that for `O=C1Nc2ccc(Br)cc2/C1=C/C(=O)c1ccc2c(c1)OCO2`, 10.6 µM (inactive). Regarding `O=Cc1ccc(OC2OCCOC2Oc2ccc(C=O)cc2)cc1` (stereo not given), the IC50 is 14.2 µM (inactive). Then `CCOc1ccc(C(=O)Nc2nc3ccccc3[nH]2)cc1OCC`, with 9.11 µM.
